Source: paper PMC12298827, “Subchronic Toxicities of Four Per- and Polyfluoroalkyl Substances (PFASs) by Oral Exposure in Sprague–Dawley Rats” (Toxics, 2025)

Tested on: male and female Sprague–Dawley rats
Test: 90-day subchronic oral gavage toxicity study
Format: in vivo, rat
Design: key to NOEL, absolute liver weight increase / LOEL, absolute liver weight increase / NOEL, relative kidney weight increase / LOEL, relative kidney weight increase / NOEL, absolute kidney weight increase / LOEL, absolute kidney weight increase / NOEL, relative liver weight increase / LOEL, relative liver weight increase: NR: no response, no statistically significant dose-dependent changes
Protocol: Subchronic (90-day) studies were performed in accordance with current U.S. EPA’s Toxic Substances Control Act Good Laboratory Practice (GLP) Standards, with the following two general exceptions to the GLP guidelines: Analysis of the dose formulations was conducted according to RTI-approved Standard Operating Procedures, and corn oil (the vehicle) was not characterized (certificate of analysis from the vendor is available in the appendices to the final reports). Male and female Sprague–Dawley rats (five dose levels plus a control, n = 10/sex/dose group, corn oil vehicle dose volume of 3 mL/kg; oral gavage) were used in these studies, and the rats were euthanized on SD 91. The dose levels for PFHI were 0, 12.5, 25, 50, 100, and 200 mg/kg-day. The dose levels for MHFPK were 0, 18.8, 37.5, 75, 150, and 300 mg/kg-day. The dose levels for PFNAC were 0, 0.1, 0.3, 1.0, 3.0, and 10 mg/kg-day for male rats and 0, 0.3, 1.0, 3.0, 10, and 30 mg/kg-day for female rats. For CTFPA, the dose levels were 0, 1.9, 3.8. 7.5, 15, and 30 mg/kg-day for male rats and 0, 6.3, 12.5, 25, 50, and 100 mg/kg-day for female rats. For each PFAS, three batches of dosing solution were prepared. The time between the batch preparation of the dosing solutions ranged between 29 and 39 days. Blood samples were collected from all the rats at termination for serum chemistry, hematology, coagulation, and the analysis of the parent PFAS chemical in the plasma. In vivo data collection and further detail on the endpoints examined postmortem are described below.
The rats were observed twice daily for morbidity and mortality throughout the study period. At least once prior to randomization to test groups and weekly thereafter, the rats were physically examined, and bodyweights were obtained. Feed consumption was quantified weekly starting on SD 1.
Neurotoxicity was evaluated using the functional observational battery (FOB) and measuring locomotor activity (LMA) 2–4 h post dosing on SDs 78–80 and 80–84, respectively. For both the 14- and 90-day studies, an ophthalmologic examination was conducted prior to randomization and near the end of the study, using indirect ophthalmoscopy and slit–lamp biomicroscopy (as needed) after the administration of a mydriatic solution.
Hematology, biochemistry, and coagulation endpoints were measured at the termination of the study. A Siemens Advia 2120i hematology analyzer (Siemens Healthineers, Erlangen, Germany) was used to measure (or calculate) the parameters related to the complete blood count, leukocyte differential count, and reticulocyte count. The hematology parameters are listed and described in Table 2. The prothrombin time […] and activated partial thromboplastin time (APTT) were measured using an Instrumentation Laboratory (Bedford, MA, USA) ACL Elite Pro coagulation analyzer (laser–nephelometric centrifugal method).
At necropsy, the rats were visually examined for external abnormalities and organ weights (absolute and relative to the BW and brain weight), which were recorded (paired organs weighed together). The tissues were preserved in 10% neutral buffered formalin (NBF), except for the ocular tissues, testes, and epididymides, which were preserved in modified Davidson’s fixative and later transferred to 10% NBF. Bone marrow smears were prepared from the femurs, and the slides were air-dried, fixed in methanol, stained, and stored at room temperature for possible future evaluation. The preserved tissues were embedded in paraffin, sectioned, stained with hematoxylin and eosin, and examined by a board-certified veterinary pathologist.
Statistical analysis was performed using Provantis™ Version 10 or greater (Instem LSS, Limited; Stone, Staffordshire, UK). Differences among the treatment groups compared to the control were evaluated using one-way analysis of variance (ANOVA) if the underlying assumptions of a normal distribution (Shapiro–Wilk test) and the homogeneity of the variance (Levene’s test) were satisfied. […]

CC(=O)C(F)(F)C(F)(F)C(F)(F)F [MHFPK, Methyl heptafluoropropyl ketone]
MPV (female, 300 mg/kg-day): 9.01 ± 0.50 fL
PT (female, 300 mg/kg-day): 15.33 s
RBC (female, 300 mg/kg-day): 8.159±0.351 M/µL
Total BW change (female, 300 mg/kg-day): 95.70 g
Total Food Consumed (female, 300 mg/kg-day): 1575 g
LOEL, absolute kidney weight increase (male): NR
LOEL, absolute liver weight increase (male): NR
LOEL, relative kidney weight increase (male): NR
LOEL, relative liver weight increase (male): NR
NOEL, absolute kidney weight increase (male): NR
NOEL, absolute liver weight increase (male): NR
NOEL, relative kidney weight increase (male): NR
NOEL, relative liver weight increase (male): NR
% BW Gain (male, 18.8 mg/kg-day): 103.77%
% Diff, % BW Gain (male, 18.8 mg/kg-day): 6.06%
% Diff, Total BW change (male, 18.8 mg/kg-day): 2.29%
% Diff, Total Food Consumed (male, 18.8 mg/kg-day): -1.53%
A/G (male, 18.8 mg/kg-day): 0.85±0.03 ratio
ABNEUT (male, 18.8 mg/kg-day): 2.172±0.976 K/µL
ABRETi (male, 18.8 mg/kg-day): 179.08±30.61 10^9/L
ABSEOS (male, 18.8 mg/kg-day): 0.110±0.032 K/µL
ALB (male, 18.8 mg/kg-day): 3.17 ± 0.18 g/dL
ALPi (male, 18.8 mg/kg-day): 114.0±26.8 U/L
APTT (male, 18.8 mg/kg-day): 19.56 s
BUN (male, 18.8 mg/kg-day): 14.8 ± 1.4 mg/dL
CHOL (male, 18.8 mg/kg-day): 78.6 ± 12.0 mg/dL
GLOB (male, 18.8 mg/kg-day): 3.75 ± 0.18 g/dL
GLUC (male, 18.8 mg/kg-day): 187.8 ± 37.5 mg/dL
HCT (male, 18.8 mg/kg-day): 49.80±1.91%
HGB (male, 18.8 mg/kg-day): 15.51 ± 0.80 g/dL
Kidney Weight (male, 18.8 mg/kg-day): 3.11 g
Kidney/Body Weight (male, 18.8 mg/kg-day): 0.54%
Kidney/Brain Weight (male, 18.8 mg/kg-day): 144%
Liver Weight (male, 18.8 mg/kg-day): 14.06 g
Liver/Body Weight (male, 18.8 mg/kg-day): 2.41%
Liver/Brain Weight (male, 18.8 mg/kg-day): 649%
MPV (male, 18.8 mg/kg-day): 7.85 ± 0.72 fL
PT (male, 18.8 mg/kg-day): 15.63 s
RBC (male, 18.8 mg/kg-day): 8.891±0.355 M/µL
Total BW change (male, 18.8 mg/kg-day): 300.42 g
Total Food Consumed (male, 18.8 mg/kg-day): 2143 g
% BW Gain (male, 37.5 mg/kg-day): 101.81%
% Diff, % BW Gain (male, 37.5 mg/kg-day): 4.06%
% Diff, Total BW change (male, 37.5 mg/kg-day): 3.12%
% Diff, Total Food Consumed (male, 37.5 mg/kg-day): -2.01%
A/G (male, 37.5 mg/kg-day): 0.86±0.07 ratio
ABNEUT (male, 37.5 mg/kg-day): 1.859±0.620 K/µL
ABRETi (male, 37.5 mg/kg-day): 192.99±15.30 10^9/L
ABSEOS (male, 37.5 mg/kg-day): 0.179±0.069 K/µL
ALB (male, 37.5 mg/kg-day): 3.17 ± 0.15 g/dL
ALPi (male, 37.5 mg/kg-day): 117.7±20.1 U/L
APTT (male, 37.5 mg/kg-day): 18.03 s
BUN (male, 37.5 mg/kg-day): 16.3 ± 1.2 mg/dL
CHOL (male, 37.5 mg/kg-day): 75.9 ± 12.3 mg/dL
GLOB (male, 37.5 mg/kg-day): 3.69 ± 0.27 g/dL
GLUC (male, 37.5 mg/kg-day): 217.1 ± 33.5 mg/dL
HCT (male, 37.5 mg/kg-day): 49.12±1.32%
HGB (male, 37.5 mg/kg-day): 15.11 ± 0.46 g/dL
Kidney Weight (male, 37.5 mg/kg-day): 2.95 g
Kidney/Body Weight (male, 37.5 mg/kg-day): 0.50%
Kidney/Brain Weight (male, 37.5 mg/kg-day): 134%
Liver Weight (male, 37.5 mg/kg-day): 13.83 g
Liver/Body Weight (male, 37.5 mg/kg-day): 2.34%
Liver/Brain Weight (male, 37.5 mg/kg-day): 627%
MPV (male, 37.5 mg/kg-day): 8.18 ± 0.65 fL
PT (male, 37.5 mg/kg-day): 16.31 s
RBC (male, 37.5 mg/kg-day): 8.732±0.259 M/µL
Total BW change (male, 37.5 mg/kg-day): 302.87 g
Total Food Consumed (male, 37.5 mg/kg-day): 2133 g
% BW Gain (male, 75 mg/kg-day): 102.83%
% Diff, % BW Gain (male, 75 mg/kg-day): 5.10%
% Diff, Total BW change (male, 75 mg/kg-day): 5.10%
% Diff, Total Food Consumed (male, 75 mg/kg-day): 1.92%
A/G (male, 75 mg/kg-day): 0.86±0.06 ratio
ABNEUT (male, 75 mg/kg-day): 1.731±0.709 K/µL
ABRETi (male, 75 mg/kg-day): 194.58±21.06 10^9/L
ABSEOS (male, 75 mg/kg-day): 0.132±0.036 K/µL
